The record followed here is patent US8686165B2, “Process for preparation of taxane derivatives” (Emcure Pharmaceuticals Limited, priority 2009, dated 2014).

The nature of series [1]: Comparative stability profile of docetaxel in solution at 35° C. with and without aluminum sulphate. The following applies: for Epi-Docetaxel / Docetaxel: solution at 35° C., trihydrate; for Epi-Docetaxel: 360 min (6 hours); for Docetaxel: 360 min. The format is physicochemical. As for the experimental part:
The docetaxel solution prepared according to present invention had 0.19% of epi-docetaxel after 6 hours.

Assay in series [2]: as above
The format is physicochemical.

Series [3] is classed as physicochemical. The conditions noted are these: 25 ± 2° C./60 ± 5% RH.

Molecules are shown by their SMILES. Where a name gives a salt, the structure may show the parent alone. Read-outs that look alike come from different tables or passages of the source.

Take `CC(=O)O[C@@]12CO[C@@H]1C[C@H](O)[C@@]1(C)C(=O)[C@H](O)C3=C(C)[C@@H](OC(=O)[C@H](O)[C@@H](NC(=O)OC(C)(C)C)c4ccccc4)C[C@@](O)([C@@H](OC(=O)c4ccccc4)[C@H]21)C3(C)C.O.O.O` [Example 1, Docetaxel trihydrate]: in series [1] (compared to a solution prepared without addition of a metal salt), the “reduction in formation of the epi-isomer degradation product” value is given as “almost a five-fold reduction”. The Epi-Docetaxel in series [1] is recorded as 0.19%; in series [2] (30 min, trihydrate), 0.11%; in series [2] (60 min, trihydrate), 0.12%; in series [2] (360 min (6 hours), listed as docetaxel solution prepared according to present invention, trihydrate), 0.19%; in series [2] (Initial), 0.11%. In addition, the Docetaxel in series [1] came to 99.38%; in series [2] (30 min, trihydrate), 99.62%; in series [2] (60 min, trihydrate), 99.50%; in series [2] (Initial), 99.68%.
In the case of `CC(=O)O[C@@]12CO[C@@H]1C[C@H](O)[C@@]1(C)C(=O)[C@H](O)C3=C(C)[C@@H](OC(=O)[C@H](O)[C@@H](NC(=O)OC(C)(C)C)c4ccccc4)C[C@@](O)([C@@H](OC(=O)c4ccccc4)[C@H]21)C3(C)C.O.O.O` [Example 2, Docetaxel trihydrate], the 7-Epi-docetaxel in series [3] (1 Month) is recorded as 0.022%; in series [3] (2 Month), 0.044%; in series [3] (Initial), 0.02%. Moreover, the “10-Deacetyl baccatin III” value in series [3] (1 Month) and in series [3] (2 Month) was 0.01% in each case. In addition, the “Any individual unspecified unidentified impurity” value in series [3] (1 Month) was found to be 0.076%; in series [3] (2 Month), 0.083%; in series [3] (Initial), 0.07%. In addition, the Total impurities in series [3] (1 Month, listed as docetaxel preparing by a process of the present invention, trihydrate) is 0.27%; in series [3] (1 Month, trihydrate), 0.27%; in series [3] (2 Month), 0.27%; in series [3] (Initial), 0.25%.
Regarding `CC(=O)O[C@@]12CO[C@@H]1C[C@H](O)[C@@]1(C)C(=O)[C@H](O)C3=C(C)[C@@H](OC(=O)[C@H](O)[C@@H](NC(=O)OC(C)(C)C)c4ccccc4)C[C@@](O)([C@@H](OC(=O)c4ccccc4)[C@H]21)C3(C)C.O.O.O` [Example 6, Docetaxel trihydrate], the Epi-Docetaxel in series [1] came out at 0.86%; in series [2] (30 min, trihydrate), 0.23%; in series [2] (60 min, trihydrate), 0.34%; in series [2] (360 min (6 hours), listed as docetaxel solution prepared without using aluminum sulfate, trihydrate), 0.86%; in series [2] (Initial) it was 0.11%. In addition, the Docetaxel is 98.81% in series [1]; 99.51% in series [2] (30 min, trihydrate); 98.95% in series [2] (60 min, trihydrate); 99.68% in series [2] (Initial).
Consider `CC(=O)O[C@@]12CO[C@@H]1C[C@H](O)[C@@]1(C)C(=O)[C@H](O)C3=C(C)[C@@H](OC(=O)[C@H](O)[C@@H](NC(=O)OC(C)(C)C)c4ccccc4)C[C@@](O)([C@@H](OC(=O)c4ccccc4)[C@H]21)C3(C)C` [Without potassium aluminum sulfate, docetaxel], for which, in series [3] (1 Month), the “7-Epi-10-deacetyl baccatin III” value is given as 0.08%, the “7-Epi-10-oxo-10-deacetyl baccatin III” value is given as 0.01%, the 7-Epi-10-oxo-Docetaxel was 0.01% and the 7-Epi-docetaxel was 0.18%. Besides, in series [3] (1 Month), the “10-Deacetyl baccatin III” value came out at 0.07%, the “Any individual unspecified unidentified impurity” value was 0.07% and the Total impurities is 0.58%. The same molecule yielded a Total impurities in series [3] (1 Month, listed as docetaxel prepared without using potassium aluminum sulfate) of 0.58%.
